Columns and labels:
[1] = Inhibiting effect of free radicals: absorbance at 516 nm in the presence of radical diphenyl picryl hydrazide (XI); format: biochemical; conditions: ethanolic solution, 200 micromoles per liter compound, 100 micromoles per liter radical (XI), stirred 30 minutes at 20° C., 1-cm vessel
Protocol: The antioxidant potential in solution of the compounds (I) is evaluated by measuring their reaction with the free radical diphenyl-picryl-hydrazide (XI) per C. T. Ho, S. Agric. Food Chem. 1999, p. 3975, using methyl gallate as a reference (XII).
The inhibiting effect of free radicals claimed for compounds (Ia) and (Ib) obtained in a pure state was evaluated by measuring their absorbance in UV spectrophotometry at 516 nanometers in the presence of radical diphenyl picryl hydrazide (XI).
We prepared ethanolic solutions containing 200 micromoles per liter of the compound to be tested and 100 micromoles per liter of radical (XI), stirred for 30 minutes at 20° C. and placed in a 1-cm long vessel, and we measured the absorbances.

[2] = Assay of the free radical scavenging activity: addition of radical (XI) solution until purple color, absorbance at 516 nm; format: biochemical
Text: b) Assay of the free radical scavenging activity of amides (Ia) and (Ib):
Under absorbance measurement conditions of 516 nanometers, we placed 2 micromoles of reference or substrate (Ia) and (Ib) under the UV cell.
We introduced a solution of 200 micromoles of radical (XI) until the purple color characteristic of the radical and measured the absorbance of the medium: […]

Structure (SMILES): COC(=O)c1cc(O)c(O)c(O)c1 [Methyl gallate, methyl gallate]
- Absorbance at 516 nm [1]: 0.06
- (XI) consumed ([2]; 2 micromoles of reference or substrate, solution of 200 micromoles of radical (XI) introduced until purple color): 27.7 mL
- Absorbance at 516 nm ([2]; absorbance of the medium after addition of radical (XI) until purple color, 2 micromoles of substrate): 0.34
